Series [1] has as its system peripheral blood mononuclear cells. The series is described as follows: Intracellular calcium kinetics after PHA, flow cytometry (fluo-4/Fura-red). The format is cell-based, human. Conditions: PHA 20 μg/ml; at micromolar concentrations. A general note: Calcium assays in cells follow changes in intracellular calcium, usually with a dye or a luminescent sensor.
Experimental: Intracellular Calcium Kinetics. Human PBMC's are resuspended in calcium-free PBS and loaded with the calcium indicator dyes Fura-red and fluo-4 for 1 hour at room temperature shielded from light. […] At the end of dye loading, cells are washed in PBS and resuspended in RPMI 1640 and placed in growth conditions. One million cells of each sample are then analyzed by a flow cytometer and the mean FL-1 and FL-3 channels recorded every 8 seconds for a total of 240 seconds. At least eight thousand events are acquired during each eight-second interval. PHA (20 μg/ml) was added to activate T cells at time 0 seconds. The ratio FL-1/FL-3 is directly related to the intracellular calcium concentration and is expressed in arbitrary units (AU).
The nature of series [2]: Phase I and II studies in patients with advanced cancer. It counts as in vivo, human. The following applies: oral doses at 150 to 300 mg/day.
Series [3] has as its system Peripheral blood mononuclear cells (PBMCs). The following applies: ConA +.
Series [4] relates to IL-2 production by CD3+ T cells. Conditions: at concentrations less than 0.5 mM.
Series [5] relates to IFN-gamma production by CD3+ T cells. Conditions: at concentrations less than 0.5 mM.
The target in series [6] is conventional protein kinase C isoform α (Homo sapiens, UniProt P17252). Conditions: cited from earlier work.
Series [7] addresses conventional protein kinase C isoform β (Homo sapiens, UniProt P05771). The following applies: cited from earlier work.
Series [8] deals with conventional protein kinase C isoform γ (Homo sapiens, UniProt P05129). The following applies: cited from earlier work.
For series [9], the target named is calcium-independent protein kinase C isoform δ (Homo sapiens, UniProt Q05655). The following applies: cited from earlier work.
Series [10] deals with T1, calcium-independent protein kinase C isoform ε (Homo sapiens, UniProt Q02156).
T1 sequence (Q02156 1-737): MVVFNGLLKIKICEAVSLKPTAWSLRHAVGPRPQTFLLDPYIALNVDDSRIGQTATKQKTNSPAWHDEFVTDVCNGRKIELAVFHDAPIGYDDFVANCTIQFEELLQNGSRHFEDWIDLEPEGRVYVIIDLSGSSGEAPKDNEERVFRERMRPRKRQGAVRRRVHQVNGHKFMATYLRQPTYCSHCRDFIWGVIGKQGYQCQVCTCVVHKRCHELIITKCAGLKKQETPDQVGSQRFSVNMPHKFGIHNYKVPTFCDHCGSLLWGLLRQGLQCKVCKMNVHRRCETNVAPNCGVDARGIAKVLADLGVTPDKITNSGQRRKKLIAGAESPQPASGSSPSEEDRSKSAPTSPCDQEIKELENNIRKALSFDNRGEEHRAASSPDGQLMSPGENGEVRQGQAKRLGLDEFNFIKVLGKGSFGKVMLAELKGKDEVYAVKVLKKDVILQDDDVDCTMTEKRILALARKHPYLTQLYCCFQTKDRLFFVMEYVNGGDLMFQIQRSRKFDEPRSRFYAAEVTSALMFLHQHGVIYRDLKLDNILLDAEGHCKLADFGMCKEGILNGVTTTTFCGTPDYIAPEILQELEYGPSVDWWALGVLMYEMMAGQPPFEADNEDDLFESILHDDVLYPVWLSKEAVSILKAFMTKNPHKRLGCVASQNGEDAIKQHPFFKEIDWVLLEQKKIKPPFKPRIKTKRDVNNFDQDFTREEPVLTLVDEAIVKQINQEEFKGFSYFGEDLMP
The following applies: cited from earlier work.

Series [11] has as its target calcium-independent protein kinase C isoform η (Homo sapiens, UniProt P24723). Conditions: cited from earlier work.

Like-named read-outs stand apart in the source and are kept apart here.

Sequence of calcium-independent protein kinase C isoform η (P24723 whole entry, canonical isoform): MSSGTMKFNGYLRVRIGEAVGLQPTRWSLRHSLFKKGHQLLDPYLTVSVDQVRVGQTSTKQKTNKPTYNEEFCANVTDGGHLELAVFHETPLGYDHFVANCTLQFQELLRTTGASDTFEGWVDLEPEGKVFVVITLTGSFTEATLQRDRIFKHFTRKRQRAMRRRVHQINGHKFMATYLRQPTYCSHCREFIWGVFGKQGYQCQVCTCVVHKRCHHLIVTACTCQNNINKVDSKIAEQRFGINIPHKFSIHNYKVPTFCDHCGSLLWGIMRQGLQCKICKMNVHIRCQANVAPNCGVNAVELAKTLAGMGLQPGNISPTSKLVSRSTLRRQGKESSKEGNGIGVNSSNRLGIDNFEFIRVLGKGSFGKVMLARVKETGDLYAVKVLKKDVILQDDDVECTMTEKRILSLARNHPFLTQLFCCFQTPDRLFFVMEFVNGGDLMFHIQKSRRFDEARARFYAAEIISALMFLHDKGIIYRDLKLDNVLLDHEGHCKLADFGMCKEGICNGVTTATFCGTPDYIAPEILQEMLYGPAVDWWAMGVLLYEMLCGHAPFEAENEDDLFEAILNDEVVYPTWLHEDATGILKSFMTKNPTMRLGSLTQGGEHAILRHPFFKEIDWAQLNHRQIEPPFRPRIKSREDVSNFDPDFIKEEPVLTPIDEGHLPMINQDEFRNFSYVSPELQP
Sequence of conventional protein kinase C isoform β (P05771 whole entry, canonical isoform): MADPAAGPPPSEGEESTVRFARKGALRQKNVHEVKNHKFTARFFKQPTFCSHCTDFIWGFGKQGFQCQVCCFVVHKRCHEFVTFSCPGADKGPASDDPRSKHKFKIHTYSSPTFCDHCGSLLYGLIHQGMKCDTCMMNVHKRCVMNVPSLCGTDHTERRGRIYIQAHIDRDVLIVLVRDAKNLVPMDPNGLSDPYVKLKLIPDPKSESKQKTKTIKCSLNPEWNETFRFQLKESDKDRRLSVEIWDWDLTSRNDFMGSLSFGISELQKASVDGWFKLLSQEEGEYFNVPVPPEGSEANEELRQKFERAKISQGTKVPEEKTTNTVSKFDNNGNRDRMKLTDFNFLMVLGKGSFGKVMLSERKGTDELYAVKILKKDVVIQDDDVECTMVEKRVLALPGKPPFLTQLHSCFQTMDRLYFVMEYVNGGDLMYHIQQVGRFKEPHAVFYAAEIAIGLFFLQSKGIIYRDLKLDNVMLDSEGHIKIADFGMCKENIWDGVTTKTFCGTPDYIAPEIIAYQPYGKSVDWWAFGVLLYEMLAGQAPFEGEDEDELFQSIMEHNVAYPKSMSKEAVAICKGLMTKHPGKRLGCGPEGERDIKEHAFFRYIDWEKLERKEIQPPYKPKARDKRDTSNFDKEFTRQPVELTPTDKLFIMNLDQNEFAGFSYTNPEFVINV
Sequence of calcium-independent protein kinase C isoform δ (Q05655 whole entry, canonical isoform): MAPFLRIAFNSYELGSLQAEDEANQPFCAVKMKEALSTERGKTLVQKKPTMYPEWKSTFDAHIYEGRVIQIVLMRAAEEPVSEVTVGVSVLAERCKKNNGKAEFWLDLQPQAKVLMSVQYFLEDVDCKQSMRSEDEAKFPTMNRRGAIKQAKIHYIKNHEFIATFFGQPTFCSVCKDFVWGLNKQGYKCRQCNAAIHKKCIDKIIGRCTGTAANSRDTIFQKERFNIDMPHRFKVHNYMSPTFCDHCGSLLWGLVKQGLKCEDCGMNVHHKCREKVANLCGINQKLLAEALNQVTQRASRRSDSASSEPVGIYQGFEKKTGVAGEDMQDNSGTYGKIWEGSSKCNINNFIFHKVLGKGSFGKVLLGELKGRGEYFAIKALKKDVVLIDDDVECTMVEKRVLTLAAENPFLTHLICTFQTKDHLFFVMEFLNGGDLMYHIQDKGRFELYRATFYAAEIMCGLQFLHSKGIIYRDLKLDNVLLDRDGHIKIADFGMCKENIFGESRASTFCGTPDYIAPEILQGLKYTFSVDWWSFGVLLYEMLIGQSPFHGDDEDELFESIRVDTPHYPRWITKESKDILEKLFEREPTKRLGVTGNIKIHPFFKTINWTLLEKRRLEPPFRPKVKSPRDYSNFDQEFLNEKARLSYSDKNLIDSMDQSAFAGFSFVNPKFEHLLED

On to `CO[C@@H]1[C@H](N(C)C(=O)c2ccccc2)C[C@H]2O[C@]1(C)n1c3ccccc3c3c4c(c5c6ccccc6n2c5c31)C(=O)NC4` [Compound I, midostaurin], for which the “intracellular calcium response to PHA” value in [1] is given as “blunts”. For the same compound, the serum levels result in series [2] is on record as “micromolar range”. Moreover, the “cpm (mean 3H-thymidine incorporation)” value in series [3] (C I 0.05 mM with CsA 50 ng/ml) is on record as 8472 cpm; in series [3] (C I 0.05 mM with CsA 100 ng/ml), 7307 cpm; in [3] (C I 0.05 mM, no CsA), 11944 cpm; in series [3] (C I 0.1 mM with CsA 50 ng/ml), 5260 cpm; in series [3] (C I 0.1 mM with CsA 100 ng/ml), 3162 cpm; in series [3] (C I 0.1 mM, no CsA) it was 9005 cpm. The “cpm (mean 3H-thymidine incorporation)” value in series [3] (C I 1 mM with CsA 50 ng/ml) amounted to 1082 cpm; in series [3] (C I 1 mM with CsA 100 ng/ml), 642 cpm; in series [3] (C I 1 mM, no CsA), 2556 cpm. The “effect on IL-2 production by CD3+ T cells” value in series [4] is “slightly increases”. For the same compound, in series [5], the “effect on IFN-gamma production by CD3+ T cells” value was “slightly increases”. In addition, the “inhibition of protein kinase C isoform α (inhibitory concentration)” value in [6] is given as “nanomolar concentrations”. Further, in series [7], the “inhibition of protein kinase C isoform β (inhibitory concentration)” value is reported as “nanomolar concentrations”. Further, the “inhibition of protein kinase C isoform γ (inhibitory concentration)” value in series [8] is “nanomolar concentrations”. The “inhibition of protein kinase C isoform δ (inhibitory concentration)” value in [9] is on record as “nanomolar concentrations”. For the same compound, the “inhibition of protein kinase C isoform ε (inhibitory concentration)” value in series [10] is “nanomolar concentrations”. Also, in series [11], the “inhibition of protein kinase C isoform η (inhibitory concentration)” value was “nanomolar concentrations”.

Values taken from US20080207496A1, “ORGANIC COMPOUND” (priority 2003, published 2008).
